PubChem BioAssay (NCI)
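Dose response: 5 concentrations. Exposure: 48 h. Format: 96-well plates. Endpoint: linear interpolation; highest concentration if not reached. GI50 marks 50% less growth. TGI: concentration producing complete growth inhibition.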

Tests used:
Assay in all cases: NCI-60 cell line screen, 48 h
NCI/ADR-RES ovarian = system: NCI/ADR-RES ovarian
EKVX NSCLC = system: EKVX NSCLC
ACHN renal = system: ACHN renal
SK-MEL-5 melanoma = system: SK-MEL-5 melanoma
HCT-15 colon = system: HCT-15 colon
HOP-92 NSCLC = system: HOP-92 NSCLC
KM12 colon = system: KM12 colon
UO-31 renal = system: UO-31 renal
NCI-H522 lung = system: NCI-H522 lung
A498 renal = system: A498 renal
COLO 205 colon = system: COLO 205 colon
DU-145 prostate = system: DU-145 prostate
LOX IMVI melanoma = system: LOX IMVI melanoma
MCF7 breast = system: MCF7 breast
TK-10 renal = system: TK-10 renal
MDA-MB-231 breast = system: MDA-MB-231 breast
SR leukemia = system: SR leukemia
PC-3 prostate = system: PC-3 prostate
HCT-116 colon = system: HCT-116 colon
UACC-62 melanoma = system: UACC-62 melanoma
U251 CNS = system: U251 CNS
HL-60(TB) leukemia = system: HL-60(TB) leukemia
MALME-3M melanoma = system: MALME-3M melanoma
RXF 393 renal = system: RXF 393 renal
HT29 colon = system: HT29 colon
HOP-62 NSCLC = system: HOP-62 NSCLC
OVCAR-3 ovarian = system: OVCAR-3 ovarian
OVCAR-8 ovarian = system: OVCAR-8 ovarian
SF-268 CNS = system: SF-268 CNS
NCI-H23 lung = system: NCI-H23 lung
SW-620 colon = system: SW-620 colon
OVCAR-5 ovarian = system: OVCAR-5 ovarian
SK-MEL-2 melanoma = system: SK-MEL-2 melanoma
SF-539 CNS = system: SF-539 CNS
MDA-MB-435 = system: MDA-MB-435
UACC-257 melanoma = system: UACC-257 melanoma
SN12C renal = system: SN12C renal
HS 578T breast = system: HS 578T breast
BT-549 breast = system: BT-549 breast
IGROV1 ovarian = system: IGROV1 ovarian
K-562 leukemia = system: K-562 leukemia
NCI-H226 lung = system: NCI-H226 lung
CCRF-CEM leukemia = system: CCRF-CEM leukemia
SK-MEL-28 melanoma = system: SK-MEL-28 melanoma
786-0 renal = system: 786-0 renal
CAKI-1 renal = system: CAKI-1 renal
HCC-2998 colon = system: HCC-2998 colon
M14 melanoma = system: M14 melanoma
NCI-H460 lung = system: NCI-H460 lung
SNB-75 CNS = system: SNB-75 CNS
A549 NSCLC = system: A549 NSCLC
SNB-19 CNS = system: SNB-19 CNS
MOLT-4 leukemia = system: MOLT-4 leukemia
RPMI-8226 leukemia = system: RPMI-8226 leukemia
OVCAR-4 ovarian = system: OVCAR-4 ovarian
SF-295 CNS = system: SF-295 CNS
T-47D breast = system: T-47D breast

CN(C)CCCNc1nc2ccccc2c2c(=O)c3cc(F)ccc3sc12
GI50 (NCI/ADR-RES ovarian): 1620 nM
TGI (NCI/ADR-RES ovarian): 3180 nM
GI50 (EKVX NSCLC): 1590 nM
TGI (EKVX NSCLC): 3240 nM
GI50 (ACHN renal): 1560 nM
TGI (ACHN renal): 2920 nM
GI50 (SK-MEL-5 melanoma): 1700 nM
TGI (SK-MEL-5 melanoma): 3120 nM
GI50 (HCT-15 colon): 1650 nM
TGI (HCT-15 colon): 3200 nM
GI50 (HOP-92 NSCLC): 1170 nM
TGI (HOP-92 NSCLC): 3960 nM
GI50 (KM12 colon): 1740 nM
TGI (KM12 colon): 3300 nM
GI50 (UO-31 renal): 1480 nM
TGI (UO-31 renal): 2830 nM
GI50 (NCI-H522 lung): 1890 nM
TGI (NCI-H522 lung): 3980 nM
GI50 (A498 renal): 1810 nM
TGI (A498 renal): 3680 nM
GI50 (COLO 205 colon): 2120 nM
TGI (COLO 205 colon): 5030 nM
GI50 (DU-145 prostate): 1680 nM
TGI (DU-145 prostate): 3160 nM
GI50 (LOX IMVI melanoma): 1630 nM
TGI (LOX IMVI melanoma): 3050 nM
GI50 (MCF7 breast): 1130 nM
TGI (MCF7 breast): 2660 nM
GI50 (TK-10 renal): 1900 nM
TGI (TK-10 renal): 3670 nM
GI50 (MDA-MB-231 breast): 1370 nM
TGI (MDA-MB-231 breast): 2750 nM
GI50 (SR leukemia): 4010 nM
TGI (SR leukemia): > 100000 nM
GI50 (PC-3 prostate): 1800 nM
TGI (PC-3 prostate): 3530 nM
GI50 (HCT-116 colon): 1510 nM
TGI (HCT-116 colon): 3190 nM
GI50 (UACC-62 melanoma): 1750 nM
TGI (UACC-62 melanoma): 3240 nM
GI50 (U251 CNS): 1900 nM
TGI (U251 CNS): 4410 nM
GI50 (HL-60(TB) leukemia): 2020 nM
TGI (HL-60(TB) leukemia): 4140 nM
GI50 (MALME-3M melanoma): 1620 nM
TGI (MALME-3M melanoma): 3050 nM
GI50 (RXF 393 renal): 1460 nM
TGI (RXF 393 renal): 2910 nM
GI50 (HT29 colon): 1700 nM
TGI (HT29 colon): 3710 nM
GI50 (HOP-62 NSCLC): 1980 nM
TGI (HOP-62 NSCLC): 4200 nM
GI50 (OVCAR-3 ovarian): 1670 nM
TGI (OVCAR-3 ovarian): 3170 nM
GI50 (OVCAR-8 ovarian): 2090 nM
TGI (OVCAR-8 ovarian): 4910 nM
GI50 (SF-268 CNS): 1530 nM
TGI (SF-268 CNS): 3160 nM
GI50 (NCI-H23 lung): 1670 nM
TGI (NCI-H23 lung): 3170 nM
GI50 (SW-620 colon): 1620 nM
TGI (SW-620 colon): 3180 nM
GI50 (OVCAR-5 ovarian): 1570 nM
TGI (OVCAR-5 ovarian): 2950 nM
GI50 (SK-MEL-2 melanoma): 2000 nM
TGI (SK-MEL-2 melanoma): 4070 nM
GI50 (SF-539 CNS): 1610 nM
TGI (SF-539 CNS): 3010 nM
GI50 (MDA-MB-435): 1740 nM
TGI (MDA-MB-435): 3360 nM
GI50 (UACC-257 melanoma): 2080 nM
TGI (UACC-257 melanoma): 4210 nM
GI50 (SN12C renal): 1610 nM
TGI (SN12C renal): 3150 nM
GI50 (HS 578T breast): 1660 nM
TGI (HS 578T breast): 3560 nM
GI50 (BT-549 breast): 10100 nM
TGI (BT-549 breast): 22900 nM
GI50 (IGROV1 ovarian): 1470 nM
TGI (IGROV1 ovarian): 2940 nM
GI50 (K-562 leukemia): 2330 nM
TGI (K-562 leukemia): 8350 nM
GI50 (NCI-H226 lung): 1710 nM
TGI (NCI-H226 lung): 3340 nM
GI50 (CCRF-CEM leukemia): 2230 nM
TGI (CCRF-CEM leukemia): 5310 nM
GI50 (SK-MEL-28 melanoma): 1760 nM
TGI (SK-MEL-28 melanoma): 3190 nM
GI50 (786-0 renal): 1470 nM
TGI (786-0 renal): 3020 nM
GI50 (CAKI-1 renal): 1580 nM
TGI (CAKI-1 renal): 2940 nM
GI50 (HCC-2998 colon): 1670 nM
TGI (HCC-2998 colon): 3240 nM
GI50 (M14 melanoma): 1980 nM
TGI (M14 melanoma): 3750 nM
GI50 (NCI-H460 lung): 1760 nM
TGI (NCI-H460 lung): 3440 nM
GI50 (SNB-75 CNS): 1330 nM
TGI (SNB-75 CNS): 2750 nM
GI50 (A549 NSCLC): 2040 nM
TGI (A549 NSCLC): 4810 nM
GI50 (SNB-19 CNS): 1650 nM
TGI (SNB-19 CNS): 3080 nM
GI50 (MOLT-4 leukemia): 2130 nM
TGI (MOLT-4 leukemia): 4480 nM
GI50 (RPMI-8226 leukemia): 2320 nM
TGI (RPMI-8226 leukemia): 5370 nM
GI50 (OVCAR-4 ovarian): 2000 nM
TGI (OVCAR-4 ovarian): 4350 nM
GI50 (SF-295 CNS): 1780 nM
TGI (SF-295 CNS): 3270 nM

NCCCNc1nc2ccccc2c2c(=O)c3cccc(F)c3sc12
GI50 (EKVX NSCLC): 1500 nM
TGI (EKVX NSCLC): 3000 nM
GI50 (ACHN renal): 1200 nM
TGI (ACHN renal): 2430 nM
GI50 (SK-MEL-5 melanoma): 1690 nM
TGI (SK-MEL-5 melanoma): 3080 nM
GI50 (HCT-15 colon): 1130 nM
TGI (HCT-15 colon): 2390 nM
GI50 (HOP-92 NSCLC): 1290 nM
TGI (HOP-92 NSCLC): 3390 nM
GI50 (KM12 colon): 1610 nM
TGI (KM12 colon): 3040 nM
GI50 (UO-31 renal): 1010 nM
TGI (UO-31 renal): 2240 nM
GI50 (NCI-H522 lung): 1610 nM
TGI (NCI-H522 lung): 3280 nM
GI50 (A498 renal): 1670 nM
TGI (A498 renal): 3100 nM
GI50 (T-47D breast): 1580 nM
TGI (T-47D breast): 3740 nM
GI50 (COLO 205 colon): 1600 nM
TGI (COLO 205 colon): 3690 nM
GI50 (DU-145 prostate): 1230 nM
TGI (DU-145 prostate): 2530 nM
GI50 (MCF7 breast): 1010 nM
TGI (MCF7 breast): 2400 nM
GI50 (TK-10 renal): 1940 nM
TGI (TK-10 renal): 3470 nM
GI50 (MDA-MB-231 breast): 1280 nM
TGI (MDA-MB-231 breast): 2750 nM
GI50 (SR leukemia): 1570 nM
TGI (SR leukemia): > 100000 nM
GI50 (PC-3 prostate): 1670 nM
TGI (PC-3 prostate): 3260 nM
GI50 (UACC-62 melanoma): 1670 nM
TGI (UACC-62 melanoma): 3130 nM
GI50 (HL-60(TB) leukemia): 1880 nM
TGI (HL-60(TB) leukemia): 3950 nM
GI50 (MALME-3M melanoma): 1570 nM
TGI (MALME-3M melanoma): 3050 nM
GI50 (RXF 393 renal): 1430 nM
TGI (RXF 393 renal): 2810 nM
GI50 (HT29 colon): 1250 nM
TGI (HT29 colon): 2690 nM
GI50 (HOP-62 NSCLC): 1500 nM
TGI (HOP-62 NSCLC): 3150 nM
GI50 (SF-268 CNS): 1470 nM
TGI (SF-268 CNS): 3350 nM
GI50 (NCI-H23 lung): 1540 nM
TGI (NCI-H23 lung): 3030 nM
GI50 (SW-620 colon): 1100 nM
TGI (SW-620 colon): 2490 nM
GI50 (OVCAR-5 ovarian): 1600 nM
TGI (OVCAR-5 ovarian): 3010 nM
GI50 (SK-MEL-2 melanoma): 1770 nM
TGI (SK-MEL-2 melanoma): 3660 nM
GI50 (SF-539 CNS): 1590 nM
TGI (SF-539 CNS): 2970 nM
GI50 (MDA-MB-435): 1770 nM
TGI (MDA-MB-435): 3390 nM
GI50 (UACC-257 melanoma): 1970 nM
TGI (UACC-257 melanoma): 3810 nM
GI50 (SN12C renal): 1280 nM
TGI (SN12C renal): 2700 nM
GI50 (HS 578T breast): 1720 nM
TGI (HS 578T breast): 3970 nM
GI50 (BT-549 breast): 11500 nM
TGI (BT-549 breast): 29600 nM
GI50 (IGROV1 ovarian): 798 nM
TGI (IGROV1 ovarian): 2220 nM
GI50 (K-562 leukemia): 1360 nM
TGI (K-562 leukemia): 4150 nM
GI50 (NCI-H226 lung): 1450 nM
TGI (NCI-H226 lung): 3060 nM
GI50 (CCRF-CEM leukemia): 1420 nM
TGI (CCRF-CEM leukemia): 4160 nM
GI50 (SK-MEL-28 melanoma): 1770 nM
TGI (SK-MEL-28 melanoma): 3230 nM
GI50 (CAKI-1 renal): 1420 nM
TGI (CAKI-1 renal): 2750 nM
GI50 (HCC-2998 colon): 1640 nM
TGI (HCC-2998 colon): 3410 nM
GI50 (M14 melanoma): 1800 nM
TGI (M14 melanoma): 3560 nM
GI50 (NCI-H460 lung): 493 nM
TGI (NCI-H460 lung): 1770 nM
GI50 (SNB-75 CNS): 1610 nM
TGI (SNB-75 CNS): 3210 nM
GI50 (SNB-19 CNS): 1570 nM
TGI (SNB-19 CNS): 3000 nM
GI50 (RPMI-8226 leukemia): 2030 nM
TGI (RPMI-8226 leukemia): 4750 nM
GI50 (OVCAR-4 ovarian): 1760 nM
TGI (OVCAR-4 ovarian): 3580 nM
GI50 (SF-295 CNS): 1740 nM
TGI (SF-295 CNS): 3190 nM
